# Experimental data taken from US5604209A, “Synergistic antiviral compositions” (Mitsubishi Chemical Corporation, priority 1993, dated 1997).
# Experiments:
# [1] = background statement; cited from earlier work
# [2] = target: T1, HIV-1 reverse transcriptase (Human immunodeficiency virus type 1 group M subtype B, UniProt P04585); test: Inhibition of HIV-1 reverse transcriptase (incorporation of tritiated thymidine phosphate into cDNA), alone and combined with AZT-TP; type: biochemical; details: for Combination Index CI50 (50% inhibition of RT) / Combination Index CI70 (70% inhibition of RT) / Combination Index CI90 (90% inhibition of RT): in combination with AZT-TP, AZT-TP/compound ratio 1/20 (MKC-442), 1/250 (R82913), 1/250 (Nevirapine), 1/40 (L-696229), CI<1 synergistic, CI>1 counterbalance
# T1 construct: HIV-1 reverse transcriptase (RT)
# Procedure: The inhibitory activity was evaluated on the basis of the incorporation Of tritiated thymidine phosphate into acid-precipitating cDNA in the presence of HIV-1 reverse transcriptase (RT).
# To a reaction solution (50 mM Tris-HC1, pH 8.4, 0.1% Triton X-100, 100 mM magnesium chloride, 2 mM dithiothreitol, 50 mM potassium chloride, 0.1 mg/ml bovine serum albumin (nuclease-free, Worthington, Freehold, N.J.), 0.5 μCi [methyl-^3 H]TTP and 12 μg/ml poly(rA). p(dT)12-18)was added 10% solution of a test drug in dimethyl sulfoxide and RT (0.05 units) to obtain a reaction mixture of total volume of 50 μl. The mixture was incubated at 37° C. for 30 min and the reaction stopped with 2M EDTA (10 μl). The resultant reaction mixture (50 μl) was spotted on Whatman DE-81 filter paper circle. The circle was washed with 5% disodium hydrogenphosphate (×3), water (×2) and 95% ethanol (×2) and the radiation was counted with scintillation counter.
# Thus, an isoborogram was prepared to evaluate the effect of combined use of AZT-TP and various allosteric inhibitors according to the method of Chou et al., Adv. Enzyme Regul., 22, 27-55 (1984) (FIG. 1). The data plotted were obtained by dividing IC50, the concentration of an allosteric inhibitor required to achieve 50% inhibition of reverse transcriptase of HIV, in the presence of AZT-TP with IC50 of an allosteric inhibitor obtained in the absence of a given concentration of AZT-TP. In the FIG. 1, each symbol represents individual allosteric inhibitor as follows.
# Combination indexes (CI) for 50%, 70% and 90% inhibition of RT (representedby CI50, CI70 and CI90) were calculated according to the method of Prichard et al., Antimicrob. Agents Chemother., 35, 1060-1065 (1991) on the basis of results obtained in experiments carried out at least twice at indicated concentration ratio. Results are shown in Table 1 below, wherein CI<1 means the synergistic effect; CI1, additive effect; and CI>1, counterbalance effect.
smiles,measurement,setting,value
"Cc1cn([C@H]2C[C@H](N=[N+]=[N-])[C@@H](CO)O2)c(=O)[nH]c1=O [AZT, 3'-azide-3'-deoxythymidine]",reported side effects,[1],severe anemia or leukopenia due to suppression of bone marrow
"Cc1cn([C@H]2C[C@H](N=[N+]=[N-])[C@@H](COP(=O)(O)OP(=O)(O)OP(=O)(O)O)O2)c(=O)[nH]c1=O [AZT-TP, 3'-azide-3'-deoxythymidine triphosphate]",concentration of AZT-TP for 50% inhibition of RT as fraction of its IC50 alone,[2]; in the presence of MKC-442 at 1/2 concentration of its IC50,about 1/10
"CCc1cc(CCc2nc3ccccc3o2)c(=O)[nH]c1C [L-696229, 3-[2-(Benzoxazole-2-yl)ethyl]-5-ethyl-6-methylpyridine-2(1H)-one]",Combination Index CI50 (50% inhibition of RT),[2],0.97
same,Combination Index CI70 (70% inhibition of RT),[2],0.99
same,Combination Index CI90 (90% inhibition of RT),[2],1.06
"CCOCn1c(Cc2ccccc2)c(C(C)C)c(=O)[nH]c1=O [MKC-442, 6-Benzyl-1-ethoxymethyl-5-isopropyluracil]",Combination Index CI50 (50% inhibition of RT),[2],0.82
same,Combination Index CI70 (70% inhibition of RT),[2],0.63
same,Combination Index CI90 (90% inhibition of RT),[2],0.43
same,IC50,"[2]; used alone, poly(rA).p(dT)12-18 template, 37° C., 30 min, read-out: IC50 (concentration required to obtain 50% inhibition of RT when used alone)",33.5 nM
"Cc1ccnc2c1NC(=O)c1cccnc1N2C1CC1 [Nevirapine, 5,11-Dihydro-11-cyclopropyl-4-methyldipyrido[2,3,-b:2',3'-e][1,4]diazepine-6-one]",Combination Index CI50 (50% inhibition of RT),[2],1.04
same,Combination Index CI70 (70% inhibition of RT),[2],0.91
same,Combination Index CI90 (90% inhibition of RT),[2],0.69
"CC(C)=CCN1Cc2cc(Cl)cc3[nH]c(=S)n(c23)C[C@@H]1C [R82913, (+)-(S)-9-Chloro-4,5,6,7-tetrahydro-5-methyl-6-(3-methyl-2-butenyl)imidazo[4,5,1-jk][1,4]benzodiazepine-2(1H)-thione]",Combination Index CI50 (50% inhibition of RT),[2],1.15
same,Combination Index CI70 (70% inhibition of RT),[2],1.33
same,Combination Index CI90 (90% inhibition of RT),[2],1.70
